# Test results taken from paper PMC10386950 (Clinical Pharmacokinetics, 2023).
# System: UDP-glucuronosyltransferases (UGTs)
# Assay: Metabolic ratio
# Format: in vivo, human
# Conditions: Child C patients
compound,measurement,value
OCc1ncc2n1-c1ccc(Cl)cc1C(c1ccccc1F)=NC2 [1′-Hydroxymidazolam],Decrease of the MR for glucuronide formation,approximately 80%
